Experimental findings from patent publication US20020161007A1, “Non-steroidal modulators of estrogen receptors” (priority 2001, published 2002) are described below.

One test deals with human breast tumor MCF-7 cell line. As to the kind of experiment: MTT antiproliferative assay on human MCF-7 cell line. It counts as cell-based. The note with it: Homo sapiens, MCF7; MTT inhibition of proliferation, mean of triplicate determinations; read-out: IC50. From the text: EXAMPLE 14—Determination of the antiproliferative effects on human MCF-7 cell lines.
MTT is a yellow tetrazolium salt which is taken up only by metabolically active cells and subsequently cleaved by mitochondrial dehydrogenases to yield a purple crystalline formazan dye. On solubilisation this purple color may be read spectrophotometrically at 570 nm. The absorbance measured at this wavelength is directly proportional to the amount of viable cells present.
Procedure : The human breast tumor MCF-7 cell line was cultured in Eagles minimum essential medium in a 5% CO2 atmosphere with 10% fetal calf serum. The medium was supplemented with 1% non-essential amino acids. The cells were trypsinized and seeded at a density of 1.5×10^4 into a 96-well plate and incubated at 37° C., 5% CO2 atmosphere for 24 h. […] Control wells contained the equivalent volume of the vehicle ethanol (1% v/v). The culture medium was then removed and the cells washed with 100 μl PBS and 50 μl MTT added, to reach a final concentration of 1 mg/ml MTT added. The cells were incubated for 2 h in darkness at […]. At this point solubilisation was begun through the addition of 200 μl DMSO and the cells maintained at room temperature in darkness for 20 min to ensure thorough color diffusion before reading the absorbance. The absorbance value of control cells (no added compound) was set to 100% cell viability. Graphs of absorbance versus cell density per well were prepared to assess cell viability.
In general terms: Tetrazolium assays rely on reduction of a dye to a coloured formazan, in cell work by metabolically active cells.
The IC50 is the point on the concentration scale where inhibition reaches its midpoint. `CCCOCCCNc1ccc(C(=C(CC)Cc2ccccc2)c2ccccc2)cc1` [Compound 32, [4-(2-Benzyl-1-phenylbut-1-enyl)-phenyl]-(3-propoxypropyl)-amine]: the IC50 came out at 23.3 µM.

Take `CCC(Cc1ccccc1)=C(c1ccccc1)c1ccc(OCCO)cc1` [Compound 35, 2-[4-(2-Benzyl-1-phenylbut1enyl)-phenoxy]-ethanol]: the IC50 was determined as 24.9 µM.

With `CCC(Cc1ccc(OC)cc1)=C(c1ccc(NCCOC)cc1)c1ccc(OC)cc1` [Compound 38, {4-[2-(4-methoxybenzyl)-1-(4-methoxyphenyl)-but-1-enyl]-phenyl}-(2-methoxyethyl)-amine], the IC50 amounted to 51.8 µM.

For the compound `CCC(Cc1ccccc1)=C(c1ccccc1)c1ccc(OCCCO)cc1` [Compound 36, 3-[4-(2-Benzyl-1-phenylbut-1-enyl)-phenoxy]-propan-1-ol], the IC50 was determined as 20.2 µM.

Take `CCOCCNc1ccc(C(=C(CC)Cc2ccccc2)c2ccccc2)cc1` [Compound 28, [4-(2-Benzyl-1-phenylbut-1-enyl)-phenyl]-(2-ethoxyethyl)-amine]: the IC50 amounted to 36.8 µM.

In the case of `CCC(Cc1ccccc1)=C(c1ccccc1)c1ccc(NCCCO)cc1` [Compound 34, 3-[4-(2-Benzyl-1-phenylbut-1-enyl)-phenylamino]-propan-1-ol], the IC50 stood at 34 µM.

With `CCCOCCNc1ccc(C(=C(CC)Cc2ccccc2)c2ccccc2)cc1` [Compound 29, [4-(2-Benzyl-1-phenylbut-1-enyl)-phenyl]-(2-propoxyethyl)-amine], the IC50 came out at 46.9 µM.

Regarding `CCC(Cc1ccccc1)=C(c1ccccc1)c1ccc(OCCOC)cc1` [Compound 40, 1-(2-Benzyl-1-phenylbut-1-enyl)-4-(2-methoxyethoxy)-benzene], the IC50 came out at 41.7 µM.

With `CCC(Cc1ccccc1)=C(c1ccccc1)c1ccc(NCCO)cc1` [Compound 33, 2-[4-(2-Benzyl-1-phenylbut-1-enyl)-phenylamino]-ethanol], the half-maximal inhibitory concentration (IC50) stood at 39.5 µM.

The test is the same for the next values; noted with them: Homo sapiens, MCF7; MTT inhibition of proliferation, mean of triplicate determinations; read-out: IC50 Range.
Regarding `CC/C(=C(\Cc1ccccc1)c1ccc(OCCN2CCCC2)cc1)c1ccccc1` [Compound 8, 1-Benzyl-2-phenyl-[1-(4-pyrrolidinylethoxy)phenyl]-but-1-ene], the concentration for half-maximal inhibition (IC50) lay within 10 to 15 µM.

In the case of `CC/C(=C(\Cc1ccccc1)c1ccc(OCCN2CCOCC2)cc1)c1ccccc1` [Compound 10, 1-Benzyl-2-phenyl[1-(5-morpholinylethoxy)phenyl]but-1-ene], the half-maximal inhibitory concentration (IC50) fell in the range of 1 to 5 µM.

Consider `CC/C(Cc1ccccc1OC)=C(/c1ccc(OCCN2CCCC2)cc1)c1ccc(OC(=O)C(C)(C)C)cc1` [Compound 26, 2,2-Dimethyl-propionic acid 4-{2-(2-methoxybenzyl)-1-[4-(2-pyrrolidin-1-yl-ethoxy)-phenyl]-but-1-enyl}-phenyl ester], for which the half-inhibitory concentration (IC50) lay in the range of 1 to 10 µM.

Staying with this test, now noted: MTT inhibition of proliferation, mean of triplicate determinations; read-out: IC50 Range.
As for `CCC(=C(Cc1ccc(OCCN2CCCC2)cc1)c1ccccc1)c1ccccc1` [Compound 18], the IC50 was 140 to 145 µM.

With `CCC(Cc1ccccc1)=C(c1ccc(OCCN2CCOCC2)cc1)c1ccc(OC(=O)C(C)(C)C)cc1` [Compound 23], the IC50 is 0.1 to 1 µM.

`CCC(Cc1ccccc1)=C(c1ccccc1)c1ccc(OCCN2CCOCC2)cc1` [Compound 5, 2-Benzyl-1-phenyl-1-[4-(morpholinylethoxy)phenyl]but-1-ene]: the half-maximal inhibitory concentration (IC50) was in the range of 40 to 50 µM.

As for `CCC(=C(Cc1ccccc1)c1ccccc1)c1ccc(OCCN2CCOCC2)cc1` [Compound 15, 1-Benzyl-1-phenyl-2-[(4-morpholinylethoxy)phenyl]but-1-ene], the IC50 was 50 to 55 µM.

Regarding `CCC(Cc1ccccc1)=C(c1ccc(OCCN(C)C)cc1)c1ccc(OC(=O)C(C)(C)C)cc1` [Compound 22], the IC50 lay in the range of 10 to 50 µM.

As for “1,2-Diphenyl-2-[(4-pipyridinylethoxy)benzyl]but-1-ene [Compound 19]”, the IC50 was 65 to 70 µM.

On to `CCC(=C(Cc1ccccc1OCCN(CC)CC)c1ccccc1)c1ccccc1` [Compound 17, 1,2-Diphenyl-2-[2-(diethylaminoethoxy)benzyl]but-1-ene], for which the IC50 was 55 to 60 µM.
